Source: patent US5607691A, “Compositions and methods for enhanced drug delivery” (priority 1995, dated 1997)
Structures can show the parent of a compound that is named as a salt. Where two headings read alike, the source gives them in different places.

Assay: in vitro
Assay type: in vitro ADME, human
Source text: Table 4 lists the serum half-lives for several model compounds and two representative pharmaceutical agent-chemical modifier complexes using an in vitro assay system described in the Experimental section below. Of course, the serum half-lives will vary in vivo depending upon the age and health condition of the patient. Each complex comprises a model compound or a pharmaceutical agent, a spacer group, and a chemical modifier. Many of the model compounds utilize 4-nitrophenyl(ethanol, propanol, or cyclohexanol) or 4-nitrophenylethylamine as the "model" pharmaceutical agent. A more complete listing of serum half-lives may be found in the Experimental section below.
General procedure for serum hydrolysis of pharmaceutical agent-modifier complexes
Stock solutions (6 mM) of the pharmaceutical agent-modifier complexes were prepared in ethanol (by vortexing, sonication or warming at 37° C. if necessary). If required for solubility, a drop of dimethylsulfoxide, dimethylformamide or methanol may be added. (Acetonitrile cannot be used because it deactivates the serum enzymes.)
HPLC separation methods were established for each study by dilution of the above stock solution (6 μl) in acetonitrile (1 ml) to give a 36 μM solution. Samples (10 μl) were injected onto a Nucleosil 5C8 (250×4 mmID) and guard column (11×4 mm ID) and eluted with a mobile phase of approximately 65% HPLC grade water and 35% of a solution of 0.1% trifluoroacetic acid in acetonitrile, the exact proportions being adjusted in each case to give optimum separation and run times.
Freshly defrosted human serum (3 ml, Sigma) was warmed at 37° C. for five minutes and then 60 μl of the agent-modifier complex stock solution was added with vortexing. […] The aliquots were added to 800 μl of 2% zinc sulfate solution in a 1.5 ml disposable microcentrifuge tube, vortexed immediately and centrifuged at 14,000 RPM for 3 minutes. The supernatants (10 μl) were then injected onto the HPLC and peak areas were used to determine the % remaining. Serum blanks were prepared similarly by addition of serum to the zinc sulfate solution followed by centrifugation, and time=0 samples were also prepared by adding serum to the zinc sulfate solution followed by addition of the complex and separation by centrifugation. The time=0 samples, as well as the original stock solutions, were also used to study the stability of the complex in the absence of enzyme. Half-lives were calculated using the equation
by plotting time (x) vs. ln % remaining (y) to obtain the slope (m) and the y intercept (b).

[1] = human, serum, Table 5, human serum, 37° C., read-out: Serum Half-life (converted)
[2] = human, serum, Table 4, human serum, 37° C., read-out: In vitro Half-Life (converted)
[3] = human, serum, Table 4, read-out: serum half-life (converted)

Row | Compound | half-life [1] [min] | further results
1 | 2-(4-nitrophenyl)ethylamine choline chloride carbamate |  | In vitro Half-Life (human, serum): 86 h; Serum Half-life (human, serum): 86 h
2 | COC(=O)CC(CN(C)C)OC(=O)Cc1c(C)n(C(=O)c2ccc(Cl)cc2)c2ccc(OC)cc12 (racemic) [3-O-(indomethacinoyl)-D,L-norcarnitine methyl ester] | 257 | Serum Half-life (Table 5, human serum, 37° C., listed as O-indomethacinyl-(D,L-norcarnitine methyl ester)): 4.3 h
3 | COC(=O)CC(C[N+](C)(C)C)OC(=O)Cc1c(C)n(C(=O)c2ccc(Cl)cc2)c2ccc(OC)cc12 (racemic) [O-indomethacinyl-(D,L-carnitine methyl ester), iodide salt] | 660 | 
4 | COc1cc(NC(=O)OCC[N+](C)(C)C)c(Cl)cc1C(=O)N[C@H]1CCN(CCCOc2ccc(F)cc2)C[C@H]1OC (relative stereo) [cisapride choline carbamate, chloride salt] | 150 | 
5 | COc1cc(NC(=O)c2ccc[n+](C)c2)c(Cl)cc1C(=O)N[C@H]1CCN(CCCOc2ccc(F)cc2)C[C@H]1OC (relative stereo) [cisapride-(N-(1-methylpyridinium-3-carboxamide), chloride salt] | 60 | 
6 | COc1cc(N)c(Cl)cc1C(=O)N[C@H]1CC[N+](CCCOc2ccc(F)cc2)(COC(=O)CCCCC[N+](C)(C)C)C[C@H]1OC (relative stereo) [cisapride-N-(6-trimethylammoniohexanoyloxymethylammonio), diiodide salt] | 60 | 
7 | COc1cc(N)c(Cl)cc1C(=O)N[C@H]1CC[N+](CCCOc2ccc(F)cc2)(COC(C)=O)C[C@H]1OC (relative stereo) [cisapride-N-acetoxymethylammonio, iodide salt] | 6.5 | 
8 | CCCC(=O)OC[N+]1(CCCOc2ccc(F)cc2)CC[C@H](NC(=O)c2cc(Cl)c(N)cc2OC)[C@H](OC)C1 (relative stereo) [cisapride-N-butyroyloxymethylammonio, iodide salt] | 7.6 | 
9 | CCOC(=O)OC[N+]1(CCCOc2ccc(F)cc2)CC[C@H](NC(=O)c2cc(Cl)c(N)cc2OC)[C@H](OC)C1 (relative stereo) [cisapride-N-ethyoxycarbonyloxymethylammonio, iodide salt] | 4.4 | 
10 | CCCCCCCCCCCC(=O)OC[N+]1(CCCOc2ccc(F)cc2)CC[C@H](NC(=O)c2cc(Cl)c(N)cc2OC)[C@H](OC)C1 (relative stereo) [cisapride-N-lauroyloxymethylammonio, iodide salt] | 5.4 | 
11 | CC(=O)O[C@H](CC(=O)NCCCCCC(=O)OC(C)Cc1ccc([N+](=O)[O-])cc1)C[N+](C)(C)C (stereo partly drawn) [1-(4-nitrophenyl)-2-propanol 6-(O-acetyl-L-carnitinamido)hexanoate ester] | 21.4 | half-life [2]: 21.4 min; half-life [3]: 21.4 min
12 | CC(=O)O[C@H](CC(=O)NCCCCCCOC(=O)OC(C)Cc1ccc([N+](=O)[O-])cc1)C[N+](C)(C)C (stereo partly drawn) [1-(4-nitrophenyl)-2-propanol 6-(O-acetyl-L-carnitinamido)hexanol carbonate, chloride salt] | 3.5 | half-life [2]: 3.5 min
13 | CC(=O)O[C@H](CC(=O)NCCCCCC(=O)OCCc1ccc([N+](=O)[O-])cc1)C[N+](C)(C)C [2-(4-Nitrophenyl)ethanol 6-(O-acetyl-L-carnitinamido)hexanoate ester, chloride salt] | 0.132 | half-life [2]: 0.132 min; half-life [3]: 0.132 min
14 | O=C(OCCc1ccc([N+](=O)[O-])cc1)c1ccc(N2CCOCC2)cc1 [2-(4-nitrophenyl)ethanol 4-morpholino benzoate] |  | In vitro Half-Life (human, serum): 0.0127 h
15 | O=C(OCCc1ccc([N+](=O)[O-])cc1)c1ccc(CN2CCOCC2)cc1 [2-(4-nitrophenyl)ethanol 4-morpholinomethyl-benzoate] | 0.762 | 
16 | O=C(CCCCCN1CCOCC1)OCCc1ccc([N+](=O)[O-])cc1 [2-(4-nitrophenyl)ethanol 6-morpholino-hexanoate] | 0.463 | half-life [2]: 0.463 min
17 | C[N+](C)(C)CCOC(=O)OCCc1ccc([N+](=O)[O-])cc1 [2-(4-nitrophenyl)ethanol choline chloride carbonate ester] | < 0.0333 | half-life [2]: < 0.0333 min
18 | CC(=O)O[C@H](CC(=O)NCCC(=O)OCCc1ccc([N+](=O)[O-])cc1)C[N+](C)(C)C [2-(4-nitrophenyl)ethyl 3-(O-acetyl-L-carnitinamido)propanoate] | 5.5 | half-life [2]: 5.5 min; half-life [3]: 5.5 min

Row | Compound | half-life [1] [min] | further results
19 | CC(=O)O[C@H](CC(=O)NCCc1ccc([N+](=O)[O-])cc1)C[N+](C)(C)C [2-(4-nitrophenyl)ethylamine 3-(O-acetyl)-L-carnitine amide, chloride salt] | 1570 | half-life [2]: 1570 min
20 | C[C@]12CC[C@@H]3c4ccc(OC(=O)OCC[N+](C)(C)C)cc4CC[C@H]3[C@@H]1CC[C@@H]2O [3,17β-estradiol-3-choline carbonate, iodide salt] | 1.53 | 
21 | C[C@]12CC[C@@H]3c4ccc(O)cc4CC[C@H]3[C@@H]1CC[C@@H]2OC(=O)C[N+](C)(C)C [3,17β-estradiol-17β-betaine ester, chloride salt] | 270 | 
22 | C[C@]12CC[C@@H]3c4ccc(O)cc4CC[C@H]3[C@@H]1CC[C@@H]2OC(=O)OCC[N+](C)(C)C [3-hydroxy-17β-estra-trienyl N,N,N-trimethylaminoethyl carbonate, iodide salt] | 16 | 
23 | CC(=O)O[C@H](CC(=O)OCCCCCCOC(=O)O[C@H]1CC[C@H]2[C@@H]3CCc4cc(O)ccc4[C@H]3CC[C@]12C)C[N+](C)(C)C [3-hydroxy-estra-1,3,5-trien-17β-yl 6-(O-acetyl-L-carnitinato)hexyl carbonate, chloride salt] |  | half-life [2]: 240 min
24 | C[N+](C)(C)CCOC(=O)OC1CCC(c2ccc([N+](=O)[O-])cc2)CC1 (stereo not drawn) [4-(4-nitrophenyl)cyclohexanol choline carbonate ester, iodide salt] | 0.327 | half-life [2]: 0.327 min
25 | CCCC(=O)OCn1c(=O)c(F)cn(C(C)OC(=O)CCC[N+](C)(C)C)c1=O.[I-] (stereo not drawn) [5-fluorouracil-1-(4-trimethylammoniobutyroyl-1-oxyethyl)-3-(butyroyloxymethyl), iodide salt] |  | Serum Half-life (Table 5, human serum, 37° C.): 0.162 h
26 | CCCC(=O)OCn1c(=O)c(F)cn(COC(=O)CCC[N+](C)(C)C)c1=O [5-fluorouracil-1-(4-trimethylammoniobutyroyloxymethyl)-3-(butyroyloxymethyl), iodide salt] | 204 | 
27 | CCCCCCCCCCCC(=O)OCn1c(=O)c(F)cn(C(C)OC(=O)CCC[N+](C)(C)C)c1=O.[I-] (stereo not drawn) [5-fluorouracil-1-(N-(4-trimethylammoniobutyroyloxy-1-ethyl)-3-(N-lauroyloxymethyl), iodide salt] |  | Serum Half-life (Table 5, human serum, 37° C.): 0.217 h
28 | CCCCCCCCCCCC(=O)OCn1c(=O)c(F)cn(COC(=O)CCC[N+](C)(C)C)c1=O [5-fluorouracil-1-(N-(4-trimethylammoniobutyroyloxymethyl)-3-(N-lauroxyoxymethyl), iodide salt] | 192 | 
29 | CCCCCCCCCCCC(=O)OCn1cc(F)c(=O)[nH]c1=O [5-fluorouracil-1-(lauroyloxmethyl)] | 3.23 | 
30 | CCCCCCCCCCCC(=O)OCn1cc(F)c(=O)n(COC(=O)CCC[N+](C)(C)C)c1=O [5-fluorouracil-1-(lauroyloxymethyl)-3-(4-trimethylammoniobutyroxyoxymethyl), iodide salt] | 420 | 
31 | CCCCCCCCCCCC(=O)OCn1cc(F)c(=O)n(COC(=O)OCC[N+](C)(C)C)c1=O [5-fluorouracil-1-(lauroyloxymethyl)-3-(cholinecarbonyloxymethyl), iodide salt] | 27 | 
32 | CC(=O)O[C@H](CC(=O)Oc1ccc2c(c1)CC[C@@H]1[C@@H]2CC[C@]2(C)[C@@H](O)CC[C@@H]12)C[N+](C)(C)C [17β-estradiol-3-(O-acetyl-L-carnitine) ester] | 8 | 
33 | CC(=O)O[C@H](CC(=O)O[C@H]1CC[C@H]2[C@@H]3CCc4cc(O)ccc4[C@H]3CC[C@]12C)C[N+](C)(C)C [17β-estradiol-17β-(O-acetyl-L-carnitine) ester] | 240 | 
34 | COc1ccc2c(c1)c(CC(=O)OCC[N+](C)(C)C)c(C)n2C(=O)c1ccc(Cl)cc1 [(indomethacinyl)choline iodide, indomethacinylcholine iodide] | < 1 | 
35 | C[C@]12CC[C@@H]3c4ccc(O)cc4CC[C@H]3[C@@H]1CC[C@@H]2OC(=O)NCC(=O)OCC[N+](C)(C)C [N-[3-hydroxy-estra-1,3,5(10-trien-17β-yl)oxycarbonyl] glycine (choline iodide) ester] | 1.62 | 
